pIC50: −log10 of the molar value.
Key:
[1] = Pharmacokinetic studies in rats
human CYP 2C9 = human CYP 2C9 (Homo sapiens, UniProt P11712); assay: CYP inhibition assay, pooled human liver microsomes, diclofenac substrate; type: in vitro ADME
human CYP 3A4 = human CYP 3A4 (Homo sapiens, UniProt P08684); assay: CYP inhibition assay, pooled human liver microsomes, midazolam substrate; type: in vitro ADME
Solubility = type: physicochemical
[2] = system: HNE-induced acute lung injury in mice; assay: HNE-induced acute lung injury; type: in vivo, mouse; settings: administered 1 h prior to the HNE noxa
[3] = biological target: porcine pancreatic elastase (PPE) (Sus scrofa, UniProt P00772); assay: Serine protease selectivity: PPE; type: biochemical; settings: listed as BAY 85-8501
[4] = system: PPE-induced acute lung injury in mice; assay: PPE-induced acute lung injury; type: in vivo, mouse; settings: PPE noxa

human CYP 3A4, sequence (P08684 whole entry): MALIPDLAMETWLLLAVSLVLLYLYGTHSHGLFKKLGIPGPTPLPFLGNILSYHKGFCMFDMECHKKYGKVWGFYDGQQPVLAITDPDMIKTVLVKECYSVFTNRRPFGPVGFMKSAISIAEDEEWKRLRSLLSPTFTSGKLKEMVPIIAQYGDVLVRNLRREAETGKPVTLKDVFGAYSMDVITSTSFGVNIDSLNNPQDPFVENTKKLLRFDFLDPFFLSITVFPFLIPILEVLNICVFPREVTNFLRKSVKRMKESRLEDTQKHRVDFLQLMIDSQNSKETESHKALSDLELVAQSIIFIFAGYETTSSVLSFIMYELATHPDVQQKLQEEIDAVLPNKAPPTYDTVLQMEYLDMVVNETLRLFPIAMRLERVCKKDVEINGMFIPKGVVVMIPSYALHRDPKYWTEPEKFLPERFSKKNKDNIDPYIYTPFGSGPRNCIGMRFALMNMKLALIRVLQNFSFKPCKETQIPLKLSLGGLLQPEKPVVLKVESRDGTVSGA
human CYP 2C9, sequence (P11712 whole entry): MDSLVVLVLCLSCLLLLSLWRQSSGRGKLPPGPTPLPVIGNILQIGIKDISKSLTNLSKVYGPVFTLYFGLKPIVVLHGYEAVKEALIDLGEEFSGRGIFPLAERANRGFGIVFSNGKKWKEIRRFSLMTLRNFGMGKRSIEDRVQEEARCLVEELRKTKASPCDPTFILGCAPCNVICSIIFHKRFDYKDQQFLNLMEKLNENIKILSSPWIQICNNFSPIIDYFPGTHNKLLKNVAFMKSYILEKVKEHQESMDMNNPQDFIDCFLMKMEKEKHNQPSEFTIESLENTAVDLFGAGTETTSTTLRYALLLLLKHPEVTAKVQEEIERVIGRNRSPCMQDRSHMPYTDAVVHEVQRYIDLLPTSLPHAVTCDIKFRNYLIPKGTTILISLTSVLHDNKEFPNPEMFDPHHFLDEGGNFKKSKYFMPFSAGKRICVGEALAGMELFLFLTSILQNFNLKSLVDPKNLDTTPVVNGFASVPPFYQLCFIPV
porcine pancreatic elastase (PPE), sequence (P00772 27-266): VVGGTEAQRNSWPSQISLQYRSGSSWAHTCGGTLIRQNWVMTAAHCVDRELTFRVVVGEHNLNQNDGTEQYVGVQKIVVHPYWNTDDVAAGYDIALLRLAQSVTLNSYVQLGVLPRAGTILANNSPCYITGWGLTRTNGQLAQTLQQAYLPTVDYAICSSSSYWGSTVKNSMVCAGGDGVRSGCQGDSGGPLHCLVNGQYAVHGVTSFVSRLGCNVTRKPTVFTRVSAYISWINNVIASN

## CC1=C(C(=O)OCCO)[C@@H](c2ccc(C#N)cc2)NC(=O)N1c1cccc(C(F)(F)F)c1 [Compound 17]
[1]; rat, in vivo, iv, 0.3 mg kg^−1
  clearance: 35 mL/min/kg
[1]; rodents / rats
  clearance: medium clearance

## CC1=C(C#N)[C@@H](c2ccc(C#N)cc2S(C)(=N)=O)N(C)C(=O)N1c1cccc(C(F)(F)F)c1 (stereo partly shown) [Compound 30]
Human CYP 2C9
  pIC50: < 4.30
Human CYP 3A4
  pIC50: < 4.30
Solubility
  solubility: improved solubility

## CC1=C(C#N)[C@@H](c2ccc(C#N)cc2S(C)(=O)=O)N(C)C(=O)N1c1cccc(C(F)(F)F)c1 [Compound 29, (4S)-4-[4-Cyano-2-(methylsulfonyl)phenyl]-3,6-dimethyl-2-oxo-1-[3-(trifluoromethyl)phenyl]-1,2,3,4-tetrahydropyrimidine-5-carbonitrile]
[2]
  development of lung injury and subsequent inflammation: completely prevented
[1]; rat, in vivo, iv, 0.3 mg kg^−1
  clearance: 8.33 mL/min/kg
[3]
  effect on PPE: no inhibitory effect
[4]
  primary lung injury: could not prevent

## CC1=C(C#N)[C@@H](c2ccc(C#N)cc2)N(CC(N)=O)C(=O)N1c1cccc(C(F)(F)F)c1 [Compound 23]
Human CYP 2C9; up to a concentration of 50 μM
  inhibition toward CYP 2C9: no observable inhibition
Human CYP 3A4; up to a concentration of 50 μM
  inhibition toward CYP 3A4: no observable inhibition

## CC(=O)C1=C(C)N(c2cccc(C(F)(F)F)c2)C(=O)N[C@@H]1c1ccc(C#N)nc1 [Compound 20]
[1]; rat, in vivo, iv, 0.3 mg kg^−1
  clearance: 33.3 mL/min/kg
[1]; rodents / rats
  clearance: medium clearance
